The text below walks through data of paper PMC1790865, “Plant Carbohydrate Scavenging through TonB-Dependent Receptors: A Feature Shared by Phytopathogenic and Aquatic Bacteria” (PLoS ONE, 2007).

Experiment [1] concerns the target T1, SuxA (XCC3358 TonB-dependent receptor) (Xanthomonas campestris, UniProt Q8P5I3).
T1 construct: gene fyuA
Nature of the experiment: […]sucrose concentration-dependent uptake in whole wild-type cells (Scatchard, high-affinity phase); uptake lost in suxA deletion mutant and restored by complementation. The class given is cell-based.

In experiment [2] the target is T2, SuxC (XCC3357 inner membrane sugar transporter) (Xanthomonas campestris, UniProt Q8P5I4).
T2 construct: gene suc1
T2 sequence (Q8P5I4 entry or part of it): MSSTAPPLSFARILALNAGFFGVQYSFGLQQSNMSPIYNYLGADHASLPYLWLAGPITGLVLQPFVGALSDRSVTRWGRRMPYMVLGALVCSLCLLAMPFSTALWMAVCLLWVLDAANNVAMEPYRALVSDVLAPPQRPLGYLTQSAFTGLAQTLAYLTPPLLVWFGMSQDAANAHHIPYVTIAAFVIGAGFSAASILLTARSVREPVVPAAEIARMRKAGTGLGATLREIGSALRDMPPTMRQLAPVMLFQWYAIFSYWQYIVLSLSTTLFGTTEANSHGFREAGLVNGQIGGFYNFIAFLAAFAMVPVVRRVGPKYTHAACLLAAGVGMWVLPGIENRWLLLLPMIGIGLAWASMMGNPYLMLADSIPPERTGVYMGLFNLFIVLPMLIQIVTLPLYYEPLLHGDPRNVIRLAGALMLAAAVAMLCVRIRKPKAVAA
Nature of the experiment: […]sucrose concentration-dependent uptake in whole wild-type cells (Scatchard, slow phase); uptake lost in suxC insertion mutant. It is filed as cell-based.

SMILES strings stand for the structures.

T1 sequence (Q8P5I3 entry or part of it): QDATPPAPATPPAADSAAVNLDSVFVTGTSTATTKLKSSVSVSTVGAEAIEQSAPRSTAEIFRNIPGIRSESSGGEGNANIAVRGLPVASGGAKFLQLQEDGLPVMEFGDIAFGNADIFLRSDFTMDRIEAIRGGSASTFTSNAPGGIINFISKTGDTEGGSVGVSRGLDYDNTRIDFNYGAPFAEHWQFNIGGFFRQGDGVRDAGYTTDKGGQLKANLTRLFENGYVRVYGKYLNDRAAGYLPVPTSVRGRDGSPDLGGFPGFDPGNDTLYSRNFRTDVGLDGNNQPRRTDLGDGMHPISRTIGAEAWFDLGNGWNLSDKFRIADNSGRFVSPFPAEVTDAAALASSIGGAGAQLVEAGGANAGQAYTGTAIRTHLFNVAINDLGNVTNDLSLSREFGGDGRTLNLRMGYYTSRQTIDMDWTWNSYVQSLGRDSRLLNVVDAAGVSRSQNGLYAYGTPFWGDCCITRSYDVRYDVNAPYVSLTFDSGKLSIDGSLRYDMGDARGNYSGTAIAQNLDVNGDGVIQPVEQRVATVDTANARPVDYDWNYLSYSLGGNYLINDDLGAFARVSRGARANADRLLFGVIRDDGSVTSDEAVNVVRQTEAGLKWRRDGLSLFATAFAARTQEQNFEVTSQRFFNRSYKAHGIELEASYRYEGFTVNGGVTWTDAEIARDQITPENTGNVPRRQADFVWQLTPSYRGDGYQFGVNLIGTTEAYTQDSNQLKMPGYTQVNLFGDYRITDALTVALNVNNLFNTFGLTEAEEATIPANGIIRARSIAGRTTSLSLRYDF

For orientation: Kd means the free concentration of one partner at which half of the binding sites on the other are occupied at equilibrium, for simple one-to-one binding. A low value points to a tighter complex. Consider `OC[C@H]1O[C@@](CO)(O[C@H]2O[C@H](CO)[C@@H](O)[C@H](O)[C@H]2O)[C@@H](O)[C@@H]1O` [sucrose], for which the Kd in experiment [1] is 33 nM; in experiment [2] it was 590 nM.
